# US9376665B2, “Method for producing intestinal cells” (National University Corporation Kumamoto University, priority 2010, dated 2016)
# B1: FGF4: FGF4 (Peprotech), growth factor (protein, UniProt P08620 31-206, looked up)
# Fibroblast growth factor 4: APTAPNGTLEAELERRWESLVALSLARLPVAAQPKEAAVQSGAGDYLLGIKRLRRLYCNVGIGFHLQALPDGRIGGAHADTRDSLLELSPVERGVVSIFGVASRFFVAMSSKGKLYGSPFFTDECTFKEILLPNNYNAYESYKYPGMFIALSKNGKTKKGNRVSPTMKVTHFLPRL
# B2: FGF10: FGF10 (R&D Systems), growth factor (protein, UniProt O15520 38-208, looked up)
# Fibroblast growth factor 10: QALGQDMVSPEATNSSSSSFSSPSSAGRHVRSYNHLQGDVRWRKLFSFTKYFLKIEKNGKVSGTKKENCPYSILEITSVEIGVVAVKAINSNYYLAMNKKGKLYGSKEFNNDCKLKERIEENGYNTYASFNWQHNGRQMYVALNGKGAPRRGQKTRRKNTSAHFLPMVVHS
# B3: Noggin: Noggin (R&D systems), a BMP-signaling inhibitor (protein, UniProt Q13253 28-232, looked up)
# Noggin: QHYLHIRPAPSDNLPLVDLIEHPDPIFDPKEKDLNETLLRSLLGGHYDPGFMATSPPEDRPGGGGGAAGGAEDLAELDQLLRQRPSGAMPSEIKGLEFSEGLAQGKKQRLSKKLRRKLQMWLWSQTFCPVLYAWNDLGSRFWPRYVKVGSCFSKRSCSVPEGMVCKPSKSVHLTVLRWRCQRRGGQRCGWIPIQYPIISECKCSC
# B4: BMP4: BMP4 (R&D Systems), activates the BMP signaling (protein, UniProt P12644 293-408, looked up)
# Bone morphogenetic protein 4: SPKHHSQRARKKNKNCRRHSLYVDFSDVGWNDWIVAPPGYQAFYCHGDCPFPLADHLNSTNHAIVQTLVNSVNSSIPKACCVPTELSAISMLYLDEYDKVVLKNYQEMVVEGCGCR
# B5: FGF18: FGF18 (Sigma), growth factor (protein, UniProt O76093 28-207, looked up)
# Fibroblast growth factor 18: EENVDFRIHVENQTRARDDVSRKQLRLYQLYSRTSGKHIQVLGRRISARGEDGDKYAQLLVETDTFGSQVRIKGKETEFYLCMNRKGKLVGKPDGTSKECVFIEKVLENNYTALMSAKYSGWYVGFTKKGRPRKGPKTRENQQDVHFMKRYPKGQPELQKPFKYTTVTKRSRRIRPTHPA
# B6: FGF7: FGF7 (R&D Systems), growth factor (protein, UniProt P21781 32-194, looked up)
# Fibroblast growth factor 7: CNDMTPEQMATNVNCSSPERHTRSYDYMEGGDIRVRRLFCRTQWYLRIDKRGKVKGTQEMKNNYNIMEIRTVAVGIVAIKGVESEFYLAMNKEGKLYAKKECNEDCNFKELILENHYNTYASAKWTHNGGEMFVALNQKGIPVRGKKTKKEQKTAHFLPMAIT
# Legend:
# [1] = test system: mouse ES cells; assay: Intestinal differentiation of mouse ES cells on M15 cells; marker expression by PCR and immunohistochemistry; type: cell-based; conditions: quantitative PCR, BIO or DAPT added alone after definitive endoderm induction, Day 20 (d20)
# Procedure: In this example, a cell line R1 was used as mouse ES cells. The cell line R1 was maintained on mouse embryonic fibroblast (MEF) feeders in 2000 mg/L-glucose-containing DMEM supplemented with Leukemia Inhibitory Factor (LIF), 10% fetal bovine serum (FBS), 100 μM of non-essential amino acids (NEAA), 2 mM of L-Gln, 50 units/mL of penicillin and 50 μg/mL of streptomycin (PS), and 100 μM β-mercaptoethanol.
# (§1) The ES cells were culture on M15 cells added with 20 ng/mL of activin and 50 ng/mL of bFGF in DMEM medium containing 10% fetal bovine sera and […] of glucose for 5 days, and were analyzed using flow cytometry for definitive endoderm. For intestinal differentiation, the ES cells were further cultured on M15 or MEF cells, in the presence of BIO and DAPT, or without BIO and DAPT but with FGFs, in media with 10% KSR at a glucose concentration of 2000 mg/mL.
# RNA was extracted from the ES cells using TRI Reagent (Sigma) or RNeasy micro-kit (Qiagen), and then, was treated with DNase (Sigma). Three micrograms of RNA were reverse-transcribed using a MMLV reverse transcriptase (Toyobo) and oligo dT primers (Toyobo). […]
# [2] = test system: definitive endoderm cells; assay: Re-culture of sorted ES cell-derived definitive endoderm cells on feeder cells with BIO and DAPT; marker expression; type: cell-based, mouse
# Procedure: as §1
# The cells were dissociated with Cell Dissociation Buffer (Invitrogen), adjusted to 1×10^6 cells/50 μL, and stained with appropriate antibodies. A biotin- or Alexa 488-conjugated anti-E-cadherin monoclonal antibody ECCD2, and a phycoerythrin (PE)-conjugated anti-Cxcr4 mAb 2B11 (BD Pharmingen) were used as the antibodies. The stained cells were purified with FACS Aria (BD Pharmingen). Data were recorded using the BD FACSDiva Software program (BD Pharmingen), and were analyzed using the Flowjo program (Tree Star).
# (§2) RNA was extracted from the ES cells using TRI Reagent (Sigma) or RNeasy micro-kit (Qiagen), and then, was treated with DNase (Sigma). Three micrograms of RNA were reverse-transcribed using a MMLV reverse transcriptase (Toyobo) and oligo dT primers (Toyobo). The PCR conditions for each cycle include initial denaturation at 96° C. for one minute, and the second and subsequent cycles of denaturation at 96° C. for 30 seconds, annealing at 60° C. for 2 seconds and extension at 72° C. for 20 seconds, and the final cycle of extension at 72° C. for 7 minutes. RT-PCR products were separated by 5% non-denaturing polyacrylamide gel electrophoresis, stained with SYBR Green I (Molecular Probes), and visualized using Gel Logic 200 Imaging System (Kodak).
# [3] = test system: mouse ES cells; assay: Test Example 1: addition of various inhibitors, Cdx2 expression by real-time PCR; type: cell-based; conditions: inhibitor plus BIO (5 μM) and DAPT (10 μM) on MEF cells for 8 days (12th day of cultivation), Noggin 500 ng/mL, Dorsomorphin 200 nM, KAAD-Cyclopamine 250 nM
# Procedure: In order to clarify what mechanism induces the intestinal differentiation in a case where mouse ES cells are used as a starting material, inhibitors against various signal transduction systems were added besides BIO and DAPT, and conditions in which expression of an intestinal marker Cdx2 decreases were evaluated.
# As an inhibitor, 500 ng/mL of Noggin (R&D systems) or 200 nM of Dorsomorphin (SIGMA-ALDRICH), which is a BMP-signaling inhibitor; 1 μM of LE540 (Wako), which is a retinoic-acid-signaling inhibitor; 250 nM of KAAD-Cyclopamine (Calbiochem), which is a hedgehog-signaling inhibitor; or 10 μM of AMD3100 (SIGMA-ALDRICH), which is a Cxcr4 inhibitor, was added thereto. […] After that, the above-sorted definitive endoderm cells were cultured in the presence of BIO (5 μM) and DAPT (10 μM) as well as the above-mentioned inhibitor for 8 days (until the 12th day of cultivation) in accordance with the method described in Example 1, RNAs were extracted from the cells by the method described in Example 1, and expression of the Cdx2 gene, namely an intestinal marker, was analyzed by real-time PCR. The real-time PCR was carried out by use of the primer pairs used in Example 1 (see Table 1), Thunderbird SYBR qPCR mix (Toyobo), and 7500 Fast Real-Time PCR system (ABI Company).
# [4] = test system: ES cells; assay: Effect of signalling inhibitors on intestinal differentiation by BIO and DAPT (Cdx2 RT-PCR and immunohistochemistry); type: cell-based, mouse; conditions: inhibitor added with BIO and DAPT on MEF cells; RT-PCR and anti-Cdx2 immunohistochemistry, day 12
# Procedure: Definitive endoderms were sorted from ES cells which had been cultured on M15 cells with activin and bFGF for 4 days, and the sorted cells were re-plated on MEF cells.
# 10 μg/mL of human bFGF (Peprotech), U0126 (Sigma), LY294002 (Calbiochem), and SU5402 (Calbiochem), respectively;
# [5] = test system: mouse ES cells; assay: Test Example 2: addition of various activators, proportion of Cdx2-positive cells by flow cytometry, feeder-free; type: cell-based; conditions: for efficiency of differentiation, BMP4 or SAG added besides FGF2: 15th day of cultivation, with BIO and DAPT
# Procedure: Therefore, next, an experiment in which the FGF signaling, the BMP signaling and the Hh signaling were activated was carried out. In view of micro-array data showing that MEF cells express FGF2 and BMP4, 50 ng/mL of FGF2 (PEPROTECH) and 25 ng/mL of BMP4 (R&D Systems) were used to activate the FGF signaling and the BMP signaling. Furthermore, as to activation of the Hh signaling, 300 nM of SAG (MERCK) (smoothend agonist; smo) was used.
# For the experiment of inducing the differentiation, the induction of differentiation was carried out in a feeder-free system as described below. First, mouse ES cells were plated on a gelatin-coated dish at 6,900 cells/cm^2. The ES cells were cultured for 7 days in DMEM medium (Dulbecco's Modified Eagle Medium) (Invitrogen, Glasgow, UK) containing 4,500 mg/L of glucose, supplemented with NEAA, L-Gln, PS, β-ME, 10 μg/mL of Insulin (Sigma-Aldrich), […] of Transferin (Sigma-Aldrich), 6.7 pg/mL of Selenium (Sigma-Aldrich), 0.25% AlbuMax (Invitrogen), and 10 ng/mL of recombinant human activin A (R&D Systems, Minneapolis, Minn.), and then, the culture medium was replaced with 10% KSR containing 2,000 mg/mL of glucose, BIO (5 μM) and DAPT (10 μM) and further supplemented with the activator or growth factor. After that, cell culturing was further continued, the cells were separated on the 10th day and the 15th day of cultivation as described in Example 1, and then, the proportion of Cdx2-positive cells was evaluated by use of flow cytometry. The flow cytometry (FACS) analysis was carried out using BD Cytofix/Cytoperm™ Kit (BD Biosciences) in accordance with a manual provided by the manufacturer.
# [6] = test system: definitive endoderm cells; assay: Effects of FGFs on intestinal differentiation of definitive endoderm cells (RT-PCR, Cdx2 immunohistochemistry); type: cell-based, mouse; conditions: FGFs added from Day 4 of the differentiation, on MEF cells; immunohistochemistry on day 12
# Procedure: as §1
# 256 ng/mL of FGF2 (human bFGF) (Peprotech); and
# 50 ng/mL of FGF4 (Peprotech), FGF5 (Sigma), FGF7 (R&D Systems), FGF8 (Cosmo Bio), FGF9 (Peprotech), FGF10 (R&D Systems) and FGF18 (Sigma), respectively.
# as §2
# [7] = high BIO concentration with DAPT (10 μM)
# [8] = high concentration of DAPT in the presence of BIO (5 μM)
molecule,measurement,setting,value
"O=C1Nc2cc(Br)ccc2/C1=C1/Nc2ccccc2/C1=N\O [BIO, (2′Z,3′E)-6-bromoindirubin-3′-oxime]",expression of Intestinal fatty acid binding protein (Ifabp),[1],induced expression
same,Hoxc8,[2]; [7],turning on
same,Pax8,[2]; [7],turned off
KAAD-Cyclopamine [reference compound],expression of Cdx2,[3],lowered
N#CC(=C(/N)Sc1ccccc1N)/C(C#N)=C(\N)Sc1ccccc1N [U0126],intestinal differentiation mediated by BIO and DAPT (Cdx2 expression),[4],not inhibited
"CNC1CCC(N(Cc2cccc(-c3ccncc3)c2)C(=O)c2sc3ccccc3c2Cl)CC1 (stereo not drawn) [SAG, N-Methyl-N′-(3-pyridinylbenzyl)-N′-(3-chlorobenzo[b]thiophene-2-carbonyl)-1,4-diaminocyclohexane, reference compound]",number of Cdx2-positive cells versus control (only BIO and DAPT),"[5]; 10th day of cultivation, FGF2 50 ng/mL or SAG 300 nM added besides BIO and DAPT",decrease
same,"efficiency of differentiation, BMP4 or SAG added besides FGF2",[5],yet more efficiently differentiate
"C[C@H](NC(=O)Cc1cc(F)cc(F)c1)C(=O)N[C@H](C(=O)OC(C)(C)C)c1ccccc1 [DAPT, N-[(3,5-difluorophenyl)acetyl]-L-Ala-2-phenyl-L-Gly-tert-butyl-OH]",expression of Intestinal fatty acid binding protein (Ifabp),[1],induced expression
same,anterior marker Pax8,[2]; [8],turned off
same,posterior marker Hoxc8,[2]; [8],inducing
Cc1c[nH]c(/C=C2\C(=O)Nc3ccccc32)c1CCC(=O)O [SU5402],intestinal differentiation mediated by BIO and DAPT (Cdx2 expression),[4],partially inhibited
B1,induction of Cdx2-expressing intestinal cells,[6],more potent in inducing Cdx2-expressing cells than FGF2 (bFGF)
B2,induction of Cdx2-expressing intestinal cells,[6],"induced intestinal differentiation of ES cells, but the levels thereof were lower"
B3,expression of Cdx2,[3],lowered
B4,"number of Cdx2-positive cells, BMP4 added in addition to SAG","[5]; 10th day of cultivation, BMP4 25 ng/mL, SAG 300 nM, BIO and DAPT",improved
same,"efficiency of differentiation, BMP4 or SAG added besides FGF2",[5],yet more efficiently differentiate
B5,induction of Cdx2-expressing intestinal cells,[6],"induced intestinal differentiation of ES cells, but the levels thereof were lower"
B6,induction of Cdx2-expressing intestinal cells,[6],"induced intestinal differentiation of ES cells, but the levels thereof were lower"
